Where a name gives a salt, the structure may show the parent alone.

In the assay the test system is THP-1 cells. Put plainly: Induction of differentiation of THP-1 leukemia cells (CD11b membrane expression, flow cytometry). In kind it is cell-based. Conditions: Homo sapiens; percentage of CD11b positive THP-1 cells, 96 h treatment. As for the experimental part:
By analyzing the induction of CD11b membrane expression on THP-1 cells we are assessing the ability of LSD1 inhibitors to induce terminal monocytic differentiation of a MLL-AF9 AML cell line. […] They carry t(9;11)(p21;q23) leading to MLL-MLLT3 (MLL-AF9) fusion gene. This cell line can undergo monocytic differentiation upon treatment with the appropriate stimulus. […] In this assay, 150, 000 THP-1 cells were seeded in 1 ml of complete culture medium in 6-well tissue culture plates. […] Cells were kept in the presence of test compound for 96 h at a 5% CO2 atmosphere at 37° C. After this treatment period, cells were harvested, washed twice with PBS buffer and placed in a V-bottom 96-well plate. Each treated sample was split in two. […] Percentage of CD11b positive cells, as an indicator of monocytic differentiation, was determined compared to isotype control antibody stained cells. EC50 values were calculated by non-linear regression analysis.

`N[C@H]1CC[C@@H](N[C@@H]2C[C@H]2c2ccccc2)CC1` [Example 4, (cis)-N1-((1R,2S)-2-phenylcyclopropyl)cyclohexane-1,4-diamine hydrochloride] had an EC50 of 5.3 nM. On to `N[C@H]1CC[C@H](N[C@@H]2C[C@H]2c2ccccc2)CC1` [Example 5, (trans)-N1-((1R,2S)-2-phenylcyclopropyl)cyclohexane-1,4-diamine hydrochloride], for which the EC50 came to 0.8 nM.
